Molecules are shown by their SMILES. ≈ marks a conversion by molar mass, not a printed value.

Data on 17 molecules can be found in US9487516B2, “Antibacterial oxadiazolone derivatives” (priority 2013, dated 2016).

Assay in all cases: Bacterial growth minimal inhibitory concentration (microdilution, cation-adjusted Mueller-Hinton Broth)
Assay type in all cases: cell-based
A general note: Broth dilution looks for growth in wells or tubes with falling amounts of substance.

Experiment [1] concerns Acinetobacter baumanii T6474. The settings on record: Acinetobacter baumannii, multiply-resistant strain (in particular quinolone-resistant). As for the experimental part: (§1) Minimal Inhibitory Concentrations (MICs; mg/L) were determined in cation-adjusted MuellerHinton Broth by a microdilution method following the description given in “Methods for Dilution Antimicrobial Susceptibility Tests for Bacteria that Grow Aerobically”, Approved standard, 7th ed., Clinical and Laboratory Standards Institute (CLSI) Document M7-A7, Wayne, Pa., USA, 2006.
(§2) All Example compounds were tested against several Gram positive and Gram negative bacteria. […] Staphylococcus aureus A798, Enterococcus faecium A949 and Acinetobacter baumanii T6474 are multiply-resistant strains (in particular quinolone-resistant), while Moraxella catarrhalis A894 is a quinolone-sensitive strain and Staphylococcus aureus ATCC29213 is a methicillin-sensitive and quinolone-sensitive strain.

In experiment [2] the test system is Enterococcus faecium A949. The settings on record: multiply-resistant strain (in particular quinolone-resistant), read-out: MIC for E. faecium A949. As for the experimental part: as §1, §2
Experiment [3] concerns Moraxella catarrhalis A894. The conditions noted are these: quinolone-sensitive strain. Here is the method: as §1, §2
For experiment [4], the system named is Staphylococcus aureus A798. The conditions noted are these: multiply-resistant strain (in particular quinolone-resistant), read-out: MIC for S. aureus A798. As for the experimental part: as §1, §2
Experiment [5] concerns Staphylococcus aureus ATCC29213. The conditions noted are these: methicillin-sensitive and quinolone-sensitive strain, read-out: MIC for S. aureus ATCC29213. Here is the method: as §1, §2

Turning to `CCCc1ccc(-n2nc(CCCN[C@@H]3Cn4c(=O)ccc5ccc(F)c3c54)oc2=O)cc1` [Example 1, (S)-9-fluoro-1-{3-[5-oxo-4-(4-propyl-phenyl)-4,5-dihydro-[1,3,4]oxadiazol-2-yl]-propylamino}-1,2-dihydro-pyrrolo[3,2,1-ij]quinolin-4-one], the minimum inhibitory concentration (MIC) in experiment [1] was above 8 µg/mL; in experiment [2], 1 µg/mL (≈ 2.23 µM); in experiment [3] it was 2 µg/mL (≈ 4.46 µM); in experiment [4] it was 2 µg/mL (≈ 4.46 µM); in experiment [5] it was 0.25 µg/mL (≈ 0.557 µM).

In the case of `CCCc1ccc(-n2nc(CCCN[C@H]3Cn4c(=O)cnc5ccc(F)c3c54)oc2=O)cc1` [Example 2, (R)-7-fluoro-6-{3-[5-oxo-4-(4-propyl-phenyl)-4,5-dihydro-[1,3,4]oxadiazol-2-yl]-propylamino}-5,6-dihydro-pyrrolo[1,2,3-de]quinoxalin-3-one], the MIC in experiment [1] was above 8 µg/mL; in experiment [2], 1 µg/mL (≈ 2.22 µM); in experiment [3], 2 µg/mL (≈ 4.45 µM); in experiment [4] it was 0.5 µg/mL (≈ 1.11 µM); in experiment [5], 0.125 µg/mL (≈ 0.278 µM).

Regarding `CC(C)c1ccc(-n2nc(CCCN[C@@H]3Cn4c(=O)ccc5ccc(F)c3c54)oc2=O)cc1` [Example 3, (S)-9-fluoro-1-{3-[4-(4-isopropyl-phenyl)-5-oxo-4,5-dihydro-[1,3,4]oxadiazol-2-yl]-propylamino}-1,2-dihydro-pyrrolo[3,2,1-ij]quinolin-4-one], the MIC in experiment [1] is above 8 µg/mL; in experiment [2] it was 0.25 µg/mL (≈ 0.557 µM); in experiment [3], 2 µg/mL (≈ 4.46 µM); in experiment [4] it was 0.25 µg/mL (≈ 0.557 µM); in experiment [5] it was 0.063 µg/mL (≈ 0.14 µM).

Consider `CCSc1ccc(-n2nc(CCCN[C@@H]3Cn4c(=O)ccc5ccc(F)c3c54)oc2=O)cc1` [Example 4, (S)-1-{3-[4-(4-ethylsulfanyl-phenyl)-5-oxo-4,5-dihydro-[1,3,4]oxadiazol-2-yl]-propylamino}-9-fluoro-1,2-dihydro-pyrrolo[3,2,1-ij]quinolin-4-one], for which the MIC in experiment [1] is 8 µg/mL (≈ 17.1 µM); in experiment [2] it was 0.5 µg/mL (≈ 1.07 µM); in experiment [3] it was 0.5 µg/mL (≈ 1.07 µM); in experiment [4], 0.5 µg/mL (≈ 1.07 µM); in experiment [5] it was 0.063 µg/mL (≈ 0.135 µM).

Turning to `CCSc1ccc(-n2nc(CCCN[C@H]3Cn4c(=O)cnc5ccc(F)c3c54)oc2=O)cc1` [Example 5, (R)-6-{3-[4-(4-ethylsulfanyl-phenyl)-5-oxo-4,5-dihydro-[1,3,4]oxadiazol-2-yl]-propylamino}-7-fluoro-5,6-dihydro-pyrrolo[1,2,3-de]quinoxalin-3-one], the MIC is 4 µg/mL (≈ 8.56 µM) in experiment [1]; 0.5 µg/mL (≈ 1.07 µM) in experiment [2]; 0.25 µg/mL (≈ 0.535 µM) in experiment [3]; 0.063 µg/mL (≈ 0.135 µM) in experiment [4]; 0.031 µg/mL (≈ 0.0663 µM) in experiment [5].

Regarding `O=C1COc2ccc(-n3nc(CCCN[C@H]4Cn5c(=O)cnc6ccc(F)c4c65)oc3=O)nc2N1` [Example 6, (R)-7-fluoro-6-{3-[5-oxo-4-(3-oxo-3,4-dihydro-2H-pyrido[3,2-b][1,4]oxazin-6-yl)-4,5-dihydro-[1,3,4]oxadiazol-2-yl]-propylamino}-5,6-dihydro-pyrrolo[1,2,3-de]quinoxalin-3-one], the minimal inhibitory concentration (MIC) in experiment [1] was determined as 2 µg/mL (≈ 4.17 µM); in experiment [2] it was 2 µg/mL (≈ 4.17 µM); in experiment [3], 0.5 µg/mL (≈ 1.04 µM); in experiment [4] it was 0.5 µg/mL (≈ 1.04 µM); in experiment [5], 0.5 µg/mL (≈ 1.04 µM).

For `O=C1COc2ccc(-n3nc(CCCN[C@@H]4Cn5c(=O)cnc6ccc(F)c4c65)oc3=O)nc2N1` [Example 7, (S)-7-fluoro-6-{3-[5-oxo-4-(3-oxo-3,4-dihydro-2H-pyrido[3,2-b][1,4]oxazin-6-yl)-4,5-dihydro-[1,3,4]oxadiazol-2-yl]-propylamino}-5,6-dihydro-pyrrolo[1,2,3-de]quinoxalin-3-one], the MIC in experiment [1] is 2 µg/mL (≈ 4.17 µM); in experiment [2], 2 µg/mL (≈ 4.17 µM); in experiment [3], 0.25 µg/mL (≈ 0.521 µM); in experiment [4] it was 0.5 µg/mL (≈ 1.04 µM); in experiment [5], 0.25 µg/mL (≈ 0.521 µM).

As to `O=C1COc2ccc(-n3nc(CCCN[C@@H]4Cn5c(=O)ccc6ccc(F)c4c65)oc3=O)nc2N1` [Example 8, (S)-9-fluoro-1-{3-[5-oxo-4-(3-oxo-3,4-dihydro-2H-pyrido[3,2-b][1,4]oxazin-6-yl)-4,5-dihydro-[1,3,4]oxadiazol-2-yl]-propylamino}-1,2-dihydro-pyrrolo[3,2,1-ij]quinolin-4-one], the MIC in experiment [1] is 0.5 µg/mL (≈ 1.05 µM); in experiment [2], 0.5 µg/mL (≈ 1.05 µM); in experiment [3], 0.125 µg/mL (≈ 0.261 µM); in experiment [4] it was 0.25 µg/mL (≈ 0.523 µM); in experiment [5], 0.125 µg/mL (≈ 0.261 µM).

Turning to `O=C1COc2ccc(-n3nc(CCCN[C@H]4Cn5c(=O)ccc6ccc(F)c4c65)oc3=O)nc2N1` [Example 9, (R)-9-fluoro-1-{3-[5-oxo-4-(3-oxo-3,4-dihydro-2H-pyrido[3,2-b][1,4]oxazin-6-yl)-4,5-dihydro-[1,3,4]oxadiazol-2-yl]-propylamino}-1,2-dihydro-pyrrolo[3,2,1-ij]quinolin-4-one], the MIC was 1 µg/mL (≈ 2.09 µM) in experiment [1]; 0.5 µg/mL (≈ 1.05 µM) in experiment [2]; 0.125 µg/mL (≈ 0.261 µM) in experiment [3]; 0.25 µg/mL (≈ 0.523 µM) in experiment [4]; 0.125 µg/mL (≈ 0.261 µM) in experiment [5].

`O=C1COc2ccc(-n3nc(CCCN[C@@H]4Cn5c(=O)cnc6ccc(F)c4c65)oc3=O)cc2N1` [Example 10, (S)-7-fluoro-6-{3-[5-oxo-4-(3-oxo-3,4-dihydro-2H-benzo[1,4]oxazin-6-yl)-4,5-dihydro-[1,3,4]oxadiazol-2-yl]-propylamino}-5,6-dihydro-pyrrolo[1,2,3-de]quinoxalin-3-one]: the MIC in experiment [1] is 0.25 µg/mL (≈ 0.523 µM); in experiment [2] it was 0.5 µg/mL (≈ 1.05 µM); in experiment [3] it was at most 0.016 µg/mL; in experiment [4] it was 0.063 µg/mL (≈ 0.132 µM); in experiment [5], 0.031 µg/mL (≈ 0.0648 µM).

On to `O=C1COc2ccc(-n3nc(CCCN[C@@H]4Cn5c(=O)ccc6ccc(F)c4c65)oc3=O)cc2N1` [Example 11, (S)-9-fluoro-1-{3-[5-oxo-4-(3-oxo-3,4-dihydro-2H-benzo[1,4]oxazin-6-yl)-4,5-dihydro-[1,3,4]oxadiazol-2-yl]-propylamino}-1,2-dihydro-pyrrolo[3,2,1-ij]quinolin-4-one], for which the MIC in experiment [1] is 0.25 µg/mL (≈ 0.524 µM); in experiment [2], 0.25 µg/mL (≈ 0.524 µM); in experiment [3], at most 0.016 µg/mL; in experiment [4], 0.063 µg/mL (≈ 0.132 µM); in experiment [5], 0.031 µg/mL (≈ 0.0649 µM).

Take `O=C1COc2ccc(-n3nc(CCCN[C@H]4Cn5c(=O)ccc6ccc(F)c4c65)oc3=O)cc2N1` [Example 12, (R)-9-fluoro-1-{3-[5-oxo-4-(3-oxo-3,4-dihydro-2H-benzo[1,4]oxazin-6-yl)-4,5-dihydro-[1,3,4]oxadiazol-2-yl]-propylamino}-1,2-dihydro-pyrrolo[3,2,1-ij]quinolin-4-one]: the MIC in experiment [1] is 0.25 µg/mL (≈ 0.524 µM); in experiment [2] it was 0.25 µg/mL (≈ 0.524 µM); in experiment [3] it was at most 0.016 µg/mL; in experiment [4], 0.031 µg/mL (≈ 0.0649 µM); in experiment [5] it was 0.031 µg/mL (≈ 0.0649 µM).

Consider `O=C1COc2ccc(-n3nc(CCCN[C@H]4Cn5c(=O)cnc6ccc(F)c4c65)oc3=O)cc2N1` [Example 13, (R)-7-fluoro-6-{3-[5-oxo-4-(3-oxo-3,4-dihydro-2H-benzo[1,4]oxazin-6-yl)-4,5-dihydro-[1,3,4]oxadiazol-2-yl]-propylamino}-5,6-dihydro-pyrrolo[1,2,3-de]quinoxalin-3-one], for which the MIC is 0.25 µg/mL (≈ 0.523 µM) in experiment [1]; 0.25 µg/mL (≈ 0.523 µM) in experiment [2]; at most 0.016 µg/mL in experiment [3]; 0.031 µg/mL (≈ 0.0648 µM) in experiment [4]; 0.031 µg/mL (≈ 0.0648 µM) in experiment [5].

As to `O=C1CSc2ccc(-n3nc(CCCN[C@H]4Cn5c(=O)ccc6ccc(F)c4c65)oc3=O)nc2N1` [Example 14, (R)-9-fluoro-1-{3-[5-oxo-4-(3-oxo-3,4-dihydro-2H-pyrido[3,2-b][1,4]-thiazin-6-yl)-4,5-dihydro-[1,3,4]oxadiazol-2-yl]-propylamino}-1,2-dihydro-pyrrolo[3,2,1-ij]quinolin-4-one], the MIC in experiment [1] was 0.25 µg/mL (≈ 0.506 µM); in experiment [2], 0.25 µg/mL (≈ 0.506 µM); in experiment [3], 0.031 µg/mL (≈ 0.0627 µM); in experiment [4] it was 0.031 µg/mL (≈ 0.0627 µM); in experiment [5], at most 0.016 µg/mL.

As to `O=C1CSc2ccc(-n3nc(CCCN[C@@H]4Cn5c(=O)ccc6ccc(F)c4c65)oc3=O)cc2N1` [Example 15, (S)-9-fluoro-1-{3-[5-oxo-4-(3-oxo-3,4-dihydro-2H-benzo[1,4]-thiazin-6-yl)-4,5-dihydro-[1,3,4]oxadiazol-2-yl]-propylamino}-1,2-dihydro-pyrrolo[3,2,1-ij]quinolin-4-one], the MIC in experiment [1] is 0.125 µg/mL (≈ 0.253 µM); in experiment [2] it was 0.063 µg/mL (≈ 0.128 µM); in experiment [3], at most 0.016 µg/mL; in experiment [4], at most 0.016 µg/mL; in experiment [5] it was at most 0.016 µg/mL.

Turning to `O=C1CSc2ccc(-n3nc(CCCN[C@H]4Cn5c(=O)cnc6ccc(F)c4c65)oc3=O)nc2N1` [Example 16, (R)-7-fluoro-6-{3-[5-oxo-4-(3-oxo-3,4-dihydro-2H-pyrido[3,2-b][1,4]-thiazin-6-yl)-4,5-dihydro-[1,3,4]oxadiazol-2-yl]-propylamino}-5,6-dihydro-pyrrolo[1,2,3-de]quinoxalin-3-one], the MIC in experiment [1] worked out at 0.25 µg/mL (≈ 0.505 µM); in experiment [2], 0.25 µg/mL (≈ 0.505 µM); in experiment [3], 0.063 µg/mL (≈ 0.127 µM); in experiment [4], 0.063 µg/mL (≈ 0.127 µM); in experiment [5], 0.063 µg/mL (≈ 0.127 µM).

Regarding `O=C1CSc2ccc(-n3nc(CCCN[C@@H]4Cn5c(=O)ccc6ccc(F)c4c65)oc3=O)nc2N1` [Example 17, (S)-9-fluoro-1-{3-[5-oxo-4-(3-oxo-3,4-dihydro-2H-pyrido[3,2-b][1,4]-thiazin-6-yl)-4,5-dihydro-[1,3,4]oxadiazol-2-yl]-propylamino}-1,2-dihydro-pyrrolo[3,2,1-ij]quinolin-4-one], the MIC in experiment [1] was 0.25 µg/mL (≈ 0.506 µM); in experiment [2], 0.25 µg/mL (≈ 0.506 µM); in experiment [3], 0.031 µg/mL (≈ 0.0627 µM); in experiment [4], 0.063 µg/mL (≈ 0.127 µM); in experiment [5] it was 0.031 µg/mL (≈ 0.0627 µM).

Broadly, the MIC is the smallest concentration in the dilution series that meets the test's criterion for growth inhibition.
